Assay results published in patent publication EP0195316A1, “Quinolonecarboxylic acid derivatives” (KYORIN PHARMACEUTICAL CO., LTD., priority 1985, dated 1986).
Converted amounts (≈) assume the structure as drawn. Marks after values point to notes of the source that are not given here.

Key:
[1] = in vivo; details: rat, po, 10 mg/kg
[2] = Subacute toxicity in dog; format: in vivo; details: beagle dogs, oral, 20 mg/kg/day for 8 days then 50 mg/kg/day for 7 days
Description: Subacute toxicity study of the present compound was carried out in beagledogs (10 weeks old, n=3). To animals 20 mg/kg/day of the present compound for 8 days and after that 50 mg/kg/day for 7 days was administered orally.

[3] = test system: Alcaligenes sp.; test: MIC, in vitro antibacterial activity (clinical isolates); format: cell-based; details: No. of strains 9
[4] = test system: B. fragilis 8503; test: MIC, in vitro antibacterial activity (standard strains); format: cell-based; details: Bacteroides fragilis; B. fragilis 8503, 10^6 cells/ml, Gram -
[5] = in vivo; details: mouse, iv
[6] = Absorption and metabolism in dogs (HPLC); format: in vivo, beagle dogs
Description: A 2 mg dose of the present compound was administered to beagle dogs orally or intravenously, and the serum levels were measured by HPLC (High-performance liquid chromatography).

[7] = test system: P. aeruginosa IID 1210; test: In vivo antibacterial activity against systemic infections in mice; details: Pseudomonas aeruginosa, IID1210; P. aeruginosa IID 1210 systemic infection (i.p.), male ICR mice, oral administration an hour after infection; read-out: ED50
Description: (§1) The infections were produced by intraperitoneal injection of suspension of the bacterial cells. The compounds were administered orally at an hour after the injection. Five male ICR mice were used for each dosage. […] The efficacy of the present compound are shown in Table 4 in comparison with those of the reference compounds.

[8] = test system: E. coli ML 4707; test: as above; details: Escherichia coli, ML4707; E. coli ML 4707 systemic infection (i.p.), male ICR mice, oral administration an hour after infection; read-out: ED50
Description: as §1

[9] = test system: S. aureus Smith; test: as above; details: Staphylococcus aureus; S. aureus Smith systemic infection (i.p.), male ICR mice, oral administration an hour after infection; read-out: ED50
Description: as §1

[10] = test system: S. pneumoniae S-4288; test: as above; details: Streptococcus pneumoniae, S4288; S. pneumoniae S-4288 systemic infection (i.p.), male ICR mice, oral administration an hour after infection; read-out: ED50
Description: as §1

[11] = test system: N. gonorrhoeae; test: MIC, in vitro antibacterial activity (clinical isolates); format: cell-based; details: Neisseria gonorrhoeae, No. of strains 16
[12] = test system: nalidixic acid-resistant Salmonella typhimurium TA98 strain (nal^r); test: Mutagenicity, reverse mutation assay
From the text: As for antibacterial agents, assessment of mutagenicity using bacteria is somewhat difficult because of their activity on the test bacteria.

[13] = Repeated oral administration to dog (reference compound); format: in vivo

**Q.** With `NC1CCN(c2c(F)cc3c(=O)c(C(=O)O)cn(C4CC4)c3c2Cl)C1` (stereo not drawn) [Example 25, 7-(3-Amino-l-pyrrolidinyl)-8-chloro-l-cyclopropyl-6-fluoro-1,4-dihydro-4-oxo-3-quinolinecarboxylic acid] as the compound, how does the dose excreted at 24 h ([1]; Excretion rate (% of dose) Bile) read?
**A.** 13.4%

**Q.** And the dose excreted at 24 h ([1]; Excretion rate (% of dose) Urine)?
**A.** 21.7%

**Q.** And the “changes in body weight and general conditions” value [2]?
**A.** No remarkable changes in body weight and general conditions

**Q.** And the “hematological examination and serum biochemical analysis” value [2]?
**A.** no abnormality with regard to hematological examination and serum biochemical analysis

**Q.** And the MIC [3]?
**A.** 0.78 µg/mL (≈ 2.13 µM)

**Q.** And the MIC [4]?
**A.** 0.39 µg/mL (≈ 1.07 µM)

**Q.** And the LD50 [5]?
**A.** 242 mg/kg

**Q.** And the urinary metabolites ([6]; animals (dogs section))?
**A.** may be hardly metabolized

**Q.** What about the “Serum levels by oral route versus intravenous route” value ([6]; beagle dogs, 2 mg dose, HPLC) of the same compound?
**A.** almost equal to those by intravenous route

**Q.** What about the ED50 [7] of the same compound?
**A.** 2.9 mg/kg

**Q.** What about the ED50 [8] of the same compound?
**A.** 0.9 mg/kg

**Q.** What about the ED50 [9] of the same compound?
**A.** 2 mg/kg

**Q.** And the ED50 [10]?
**A.** 13 mg/kg

**Q.** And the MIC [11]?
**A.** 13 ng/mL (≈ 0.0355 µM)

**Q.** What about the “His^+ revertants per plate” value ([12]; 0.005 µg/plate, S9-mix +) of the same compound?
**A.** 60

**Q.** What about the “His^+ revertants per plate” value ([12]; 0.005 µg/plate, S9-mix -) of the same compound?
**A.** 28

**Q.** And the “His^+ revertants per plate” value ([12]; 0.01 µg/plate, S9-mix +)?
**A.** 48

**Q.** What about the “His^+ revertants per plate” value ([12]; 0.01 µg/plate, S9-mix -) of the same compound?
**A.** 29

**Q.** And the “His^+ revertants per plate” value ([12]; 0.05 µg/plate, S9-mix +)?
**A.** 39*

**Q.** What about the “His^+ revertants per plate” value ([12]; 0.05 µg/plate, S9-mix -) of the same compound?
**A.** 26

**Q.** What about the “His^+ revertants per plate” value ([12]; 0.1 µg/plate, S9-mix +) of the same compound?
**A.** 6*

**Q.** And the “His^+ revertants per plate” value ([12]; 0.1 µg/plate, S9-mix -)?
**A.** 16*

**Q.** And the “His^+ revertants per plate” value ([12]; 0.5 µg/plate, S9-mix +)?
**A.** 0*

**Q.** What about the “His^+ revertants per plate” value ([12]; 0.5 µg/plate, S9-mix -) of the same compound?
**A.** 0*

**Q.** What about the “His revertant colonies compared with the solvent control” value ([12]; within measurable concentration, with and without the drug metabolic activation) of the same compound?
**A.** no increment of His revertant colonies

**Q.** Which MIC [3] does the source give for `CC1CN(c2c(F)cc3c(=O)c(C(=O)O)cn(C4CC4)c3c2Cl)CCN1` (stereo not drawn) [Ref.2, 8-Chloro-1-cyclopropyl-6-fluoro-1,4-dihydro-7-(3-methyl-1-piperazinyl)-4-oxo-3-quinolinecarboxylic acid] here?
**A.** 6.25 µg/mL (≈ 16.5 µM)

**Q.** What about the “GPT and TTT (hepatoxicity)” value [13] of the same compound?
**A.** marked elevation of GPT and decrease of TTT

**Q.** And the “side effect on central nervous system” value [13]?
**A.** strong vomiting and clonic convulsion

**Q.** What about the MIC [4] of the same compound?
**A.** 0.78 µg/mL (≈ 2.05 µM)

**Q.** And the MIC [11]?
**A.** 6 ng/mL (≈ 0.0158 µM)
